Data on five compounds can be found in US7858745B2, “Use of specifically engineered enzymes to enhance the efficacy of prodrugs” (The Board of Trustees of the University of Illinois, priority 2003, dated 2010).

The target in one assay is A100V/R104M/D133A-dCK (Homo sapiens, UniProt P27707, A100V/D133A/R104M). Nature of the assay: Steady-state kinetic assay of deoxycytidine kinase activity, triple mutant enzyme. The method, then: Since Arg104 plays a role in the already mentioned active site hydrogen-bonding network, its mutation to the uncharged methionine was combined with the compensatory change of Asp133 to an alanine. […] In addition, Ala100 was changed to a valine as is found in dNK.
All experiments were performed in duplicates.

The next assay deals with T1, dNK (Drosophila melanogaster, UniProt Q9XZT6).
T1 sequence (Q9XZT6 1-250): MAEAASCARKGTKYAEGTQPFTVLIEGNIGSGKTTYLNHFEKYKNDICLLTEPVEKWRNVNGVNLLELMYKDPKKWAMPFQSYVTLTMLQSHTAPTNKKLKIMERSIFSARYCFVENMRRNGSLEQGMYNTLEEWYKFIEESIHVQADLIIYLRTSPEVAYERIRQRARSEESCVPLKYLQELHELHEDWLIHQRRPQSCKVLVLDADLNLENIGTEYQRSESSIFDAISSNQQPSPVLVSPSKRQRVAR
The note with it: dC phosphorylation; cited from earlier work.

The target in the next assay is Wild Type dCK (Homo sapiens, UniProt P27707). The assay is described as follows: Steady-state kinetic assay of deoxycytidine kinase activity, wild type enzyme. The note with it: prodrug versus dC.
The next assay deals with NB4 cells. Nature of the assay: Apoptosis assay, NB4. Format: cell-based. The note with it: after 96 hours; AraC 250 nM. The method, then:
(§1) The HuM195 antibody will only bind and internalize to cells expressing CD33. Thus, the HL60 cell line (derived from AML cells) and the NB4 cell line, which are CD33 positive, were used to test the activity of the HuM195-dCK system in live cells. The cells were treated with AraC, the HuM195-dCK conjugate, or the combination of HuM195-dCK and the AraC. Annexin V and propidium iodide (PI) staining was used to identify apoptotic cells.
The NB4 cells were also treated with AraC, the HuM195-dCK conjugate, or the combination of HuM195-dCK and the AraC, and an apoptosis assay was performed as above. The AraC dose used, however, was decreased from 1000 nM to 250 nM. The results were similar to those observed in the HL60 cells (FIG. 8). The conjugate with AraC (right bars) achieve ˜65% cell killing after 96 hours, whereas AraC alone was below 40%.

The test system of another assay is HL60 cell line. Nature of the assay: Annexin V and propidium iodide (PI) staining of apoptotic cells, HL60. The assay is classed as cell-based. As to conditions: after 96 hours; AraC at 1 μM. The method, then:
as §1

For a further assay, the target named is dCK (Homo sapiens, UniProt P27707). The note with it: versus cladribine; cited from earlier work.

Molecules are shown by their SMILES.

Sequence of Wild Type dCK (P27707 whole entry): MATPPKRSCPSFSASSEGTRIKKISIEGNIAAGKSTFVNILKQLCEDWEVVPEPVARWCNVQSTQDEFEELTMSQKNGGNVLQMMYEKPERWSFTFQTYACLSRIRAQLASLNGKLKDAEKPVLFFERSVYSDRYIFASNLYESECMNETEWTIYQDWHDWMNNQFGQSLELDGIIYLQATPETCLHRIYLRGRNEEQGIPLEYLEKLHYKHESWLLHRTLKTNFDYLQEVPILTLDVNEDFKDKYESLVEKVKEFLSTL
Sequence of A100V/R104M/D133A-dCK (P27707 whole entry A100V/R104M/D133A): as the sequence (P27707 whole entry) above, with A100V, R104M, D133A counted along it
Sequence of dCK (P27707 whole entry): as the sequence (P27707 whole entry) above

For `Cc1cn([C@H]2C[C@H](O)[C@@H](CO)O2)c(=O)[nH]c1=O` [thymidine], the “phosphorylation of thymidine by the dCK mutant” value on A100V/R104M/D133A-dCK (Arg104 to methionine, Asp133 to alanine) is recorded as “gained the ability to phosphorylate thymidine”.

In general, kcat refers to the maximal rate divided by the concentration of active sites. As to `Nc1ccn([C@H]2C[C@H](O)[C@@H](CO)O2)c(=O)n1` [dC, deoxycytidine], the kcat at dNK was 16.5 s⁻¹.

In the case of `Nc1ccn([C@@H]2O[C@H](CO)[C@@H](O)C2(F)F)c(=O)n1` [gemcitabine, 2′,2′-difurodeoxycytidine], the “increase of efficiency of the triple mutant over wild type” value at A100V/R104M/D133A-dCK (triple mutant versus wild type dCK) is given as around 4 fold. In addition, at Wild Type dCK, the “change in KM compared to dC” value is “slight increase”, the “higher enzymatic efficiency for dCK compared to dC” value was around 4 fold and the “increase in the kcat compared to dC” value is reported as 10 fold.

For the compound `Nc1ccn([C@@H]2O[C@H](CO)[C@@H](O)[C@@H]2O)c(=O)n1` [ara-C, 1-β-D-arabinofuranosylcytosine], the cell killing result with NB4 cells is on record as “below 40%”. The cell death with HL60 cell line was 50%. `Nc1nc(Cl)nc2c1ncn2[C@@H]1O[C@H](CO)[C@@H](O)[C@@H]1F` [clofarabine, 2-chloro-2′-arabino-fluoro-2′-deoxyadenosine]: the “more efficient substrate for dCK than cladribine” value at dCK is given as around 3 fold.
